For assay [1], the system named is severe acne vulgaris with multiple nodules. In words: Open label clinical study of daily or pulsed oral azithromycin, nodule counts over 3 months. It counts as in vivo, human. Conditions: for Nodules in the 2 non-responding patients two months after initiation of therapy: single patients. From the text:
The invention is further illustrated by the following non-limiting examples. In the examples, patients included in the study were male or female subjects of any race, 16 years of age or older. presenting with 20-60 inflammatory lesions (papules or pustules), 20 to 150 non-inflammatory lesions (comedones or whiteheads), and 3 to 10 nodules. Patients having severe acne vulgaris with multiple nodules were enrolled in an open label clinical study in which each patient received a daily oral dose of 250 mg of azithromycin for the 3-month duration of the study. Lesion counts were recorded at baseline before the initiation of treatment and at 1, 2, and 3 months following initiation of treatment. […] These 2 patients had 9 and 8 nodules, respectively, at baseline and 8 and 13 nodules, respectively two months after initiation of therapy. Of the favorable responders, two patients who began the study with 3 nodules had 2 nodules at the end of the three month study. The remaining 14 patients who responded favorably to treatment had on average 6.7 nodules at baseline (range 4 to 10 nodules) and improved to having no nodules (10 patients) or at most 1 nodule (4 patients) by the end of the three month course of treatment. Another set of patients with severe acne vulgaris was enrolled in an open label clinical study as in Example 1, except that each patient received a daily oral dose of 250 mg of azithromycin for one week followed by one week of no azithromycin, which cycle was repeated for the 3-month duration of the study. […] These 2 patients had 6 and 10 nodules, respectively, at baseline and 5 and 8 nodules, respectively, two months after initiation of therapy. Three patients had partial clearing of nodules during the study. These patients had 9, 10, and 6 nodules, respectively, at baseline and 3, 4, and 2 nodules, respectively, at the end of the study. Another set of patients with severe acne vulgaris was enrolled in an open label clinical study as in Example 1, except that each patient received a daily oral dose of 125 mg of azithromycin for the 3-month duration of the study. […] These 2 patients had 8 and 3 nodules, respectively, at baseline and 10 and 4 nodules, respectively two months after initiation of therapy. The 18 patients who responded favorably to treatment had on average 5.1 nodules at baseline (range 3 to 8 nodules) and improved to having no nodules (13 patients) or at most 1 nodule (5 patients) at the end of the three month course of treatment.

The test system of assay [2] is lesions of inflammatory acne. The settings on record: pulse-dose regimen, three-times-weekly, versus daily doxycycline, erythromycin, minocycline, tetracycline; cited from earlier work.
Assay [3] deals with moderate to severe inflammatory acne. Conditions: 500 mg for three consecutive days in a 10 day cycle, with topical erythromycin; cited from earlier work.
The next assay relates to nodular cystic acne. Conditions: Pigatto study, in words; cited from earlier work.
[4] abbreviates: Example 1, 250 mg/day oral, 3 months, 18 patients.
Setting [5] is: Example 2, 250 mg/day every other week, 3 months, 18 patients.
[6] abbreviates: Example 3, 125 mg/day oral, 3 months, 20 patients.
The mark [7] stands for this setting: Total Examples 1 to 3, 56 patients.

Values joined by “and” are separate entries in the source; they are usually repeats but may differ in a detail not shown here. Equal values may be shown once.

`CC[C@H]1OC(=O)[C@H](C)[C@@H](O[C@H]2C[C@@](C)(OC)[C@@H](O)[C@H](C)O2)[C@H](C)[C@@H](O[C@@H]2O[C@H](C)C[C@H](N(C)C)[C@H]2O)[C@](C)(O)C[C@@H](C)CN(C)[C@H](C)[C@@H](O)[C@]1(C)O` [azithromycin, 9-deoxo-9a-aza-9a-methyl-9a-homoerythromycin A]: the “Number of patients that did not respond favorably to treatment” value in assay [1] (Example 1, 250 mg daily oral, of 18 patients in study longer than one month) was determined as 2; in assay [1] (Example 2, 250 mg daily one week on, one week off, of 18 patients), 2; in assay [1] (Example 3, 125 mg daily oral, of 20 patients), 2. Also, the “Number of patients improved to at most 1 nodule by end of three month treatment” value in assay [1] (Example 1, 250 mg daily, of remaining 14 favorable responders, average 6.7 nodules at baseline) was 4 patients. Also, the “Number of patients improved to having no nodules by end of three month treatment” value in assay [1] (Example 1, 250 mg daily, of remaining 14 favorable responders, average 6.7 nodules at baseline (range 4 to 10)) was determined as 10 patients. In addition, the “Nodules in the 2 non-responding patients two months after initiation of therapy” value in assay [1] (Example 1, 250 mg daily, 9 and 8 nodules at baseline, respectively) was 8 nodules and 13 nodules; in assay [1] (Example 2, 250 mg daily every other week, 6 and 10 nodules at baseline, respectively), 5 nodules and 8 nodules; in assay [1] (Example 3, 125 mg daily, 8 and 3 nodules at baseline, respectively) it was 10 nodules and 4 nodules. In addition, in assay [1] (Example 1, 250 mg daily, two patients who began with 3 nodules), the “Nodules at the end of the three month study in two favorable responders” value is recorded as 2 nodules. Moreover, the “Number of good responders” value is recorded as 16 in assay [1] (setting [4]), 16 in assay [1] (setting [5]), 18 in assay [1] (setting [6]) and 50 in assay [1] (setting [7]). Further, the “Percentage of good responders” value came to 88.9% in assay [1] (setting [4]), 88.9% in assay [1] (setting [5]) and 90.0% in assay [1] (setting [6]). Besides, the “Percentage of nodules cleared in good responders” value in assay [1] (Example 1, 250 mg/day, 16 good responders) was determined as 92.0%; in assay [1] (Example 2, 250 mg/day every other week, 16 good responders), 87.9%; in assay [1] (Example 3, 125 mg/day, 18 good responders) it was 94.6%. Besides, the “Nodules in good responders after treatment” value in assay [1] (Example 1, 250 mg/day, 16 good responders, nodules before 100) was 8; in assay [1] (Example 2, 250 mg/day every other week, 16 good responders, nodules before 99) it was 12; in assay [1] (Example 3, 125 mg/day, 18 good responders, nodules before 92) it was 5; in assay [1] (Total Examples 1 to 3, 50 good responders, nodules before 291) it was 25. Moreover, the “Percentage of nodules cleared” value is given as 75.2% in assay [1] (Example 1, 250 mg/day, all 18 patients); 78.3% in assay [1] (Example 2, 250 mg/day every other week, all 18 patients); 81.6% in assay [1] (Example 3, 125 mg/day, all 20 patients); 78.2% in assay [1] (setting [7]). In addition, the “Nodules remaining after treatment” value in assay [1] (Example 1, 250 mg/day, all 18 patients, number of nodules before 117) is on record as 29; in assay [1] (Example 2, 250 mg/day every other week, all 18 patients, number of nodules before 115), 25; in assay [1] (Example 3, 125 mg/day, all 20 patients, number of nodules before 103), 19; in assay [1] (Total Examples 1 to 3, 56 patients, number of nodules before 335) it was 73. In addition, the “Number of patients improved to at most 1 nodule at end of three month treatment” value was 3 patients in assay [1] (Example 2, 250 mg daily every other week, of remaining 13 favorable responders, average 6.2 nodules at baseline) and 5 patients in assay [1] (Example 3, 125 mg daily, of 18 favorable responders, average 5.1 nodules at baseline). The “Number of patients improved to having no nodules at end of three month treatment” value in assay [1] (Example 2, 250 mg daily every other week, of remaining 13 favorable responders, average 6.2 nodules at baseline (range 3 to 10)) was 10 patients; in assay [1] (Example 3, 125 mg daily, of 18 favorable responders, average 5.1 nodules at baseline (range 3 to 8)), 13 patients. Further, the “Nodules at the end of the study in three patients with partial clearing” value in assay [1] (Example 2, 250 mg daily every other week, single patients, 9, 10 and 6 nodules at baseline, respectively) is 3 nodules and 4 nodules and 2 nodules. Also, the “Efficacy in treating nodular acne vulgaris, including severe nodular acne vulgaris” value in assay [1] (systemic administration, Examples 1 to 3) is “highly efficacious”. The “Efficacy in treating lesions of inflammatory acne” value in assay [2] was “as effective as other antibiotics tested”. Besides, in assay [3], the “Efficacy in treating moderate to severe acne vulgaris” value is reported as “effective”.

In the case of `CC1=C(/C=C/C(C)=C/C=C/C(C)=C\C(=O)O)C(C)(C)CCC1` [isotretinoin], the “Efficacy in treating nodular cystic acne” value in the assay with nodular cystic acne was “highly efficacious”.
